Source: US20180237441A1, “Chemical Compounds” (GlaxoSmithKline Intellectual Property (No.2) Limited, priority 2015, published 2018)

Molecular target: T1, PERK (Homo sapiens, UniProt Q9NZJ5)
T1 sequence (Q9NZJ5 30-1116): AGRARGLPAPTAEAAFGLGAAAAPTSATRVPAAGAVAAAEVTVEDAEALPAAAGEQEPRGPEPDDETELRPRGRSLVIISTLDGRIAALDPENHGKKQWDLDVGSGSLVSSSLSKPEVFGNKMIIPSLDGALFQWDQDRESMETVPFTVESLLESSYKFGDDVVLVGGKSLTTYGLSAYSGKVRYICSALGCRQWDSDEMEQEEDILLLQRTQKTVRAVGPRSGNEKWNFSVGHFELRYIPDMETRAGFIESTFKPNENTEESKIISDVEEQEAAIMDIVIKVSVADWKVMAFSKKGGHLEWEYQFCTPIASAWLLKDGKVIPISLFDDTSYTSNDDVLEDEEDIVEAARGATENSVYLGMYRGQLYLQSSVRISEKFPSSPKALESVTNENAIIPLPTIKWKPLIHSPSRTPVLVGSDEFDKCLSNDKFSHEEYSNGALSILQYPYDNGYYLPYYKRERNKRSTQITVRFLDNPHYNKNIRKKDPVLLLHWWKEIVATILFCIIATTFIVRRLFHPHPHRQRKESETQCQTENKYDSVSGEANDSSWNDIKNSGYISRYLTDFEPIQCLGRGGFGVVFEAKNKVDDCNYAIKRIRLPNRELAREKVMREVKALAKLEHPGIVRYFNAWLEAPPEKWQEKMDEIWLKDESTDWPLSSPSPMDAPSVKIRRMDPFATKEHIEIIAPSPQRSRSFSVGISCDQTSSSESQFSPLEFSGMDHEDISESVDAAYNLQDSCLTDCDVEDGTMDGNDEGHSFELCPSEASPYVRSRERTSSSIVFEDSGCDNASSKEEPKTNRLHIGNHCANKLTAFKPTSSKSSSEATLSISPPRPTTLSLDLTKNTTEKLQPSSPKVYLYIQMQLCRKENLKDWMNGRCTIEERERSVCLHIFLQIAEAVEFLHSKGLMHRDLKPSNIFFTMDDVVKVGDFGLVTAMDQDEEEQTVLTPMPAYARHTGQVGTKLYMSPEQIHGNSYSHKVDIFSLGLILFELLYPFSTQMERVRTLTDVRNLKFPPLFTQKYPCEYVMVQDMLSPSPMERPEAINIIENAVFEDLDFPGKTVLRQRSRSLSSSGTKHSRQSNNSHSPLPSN
Experiment: PERK enzyme assay (HTRF)
Assay type: biochemical
Conditions: 500 μM ATP; at least one experimental run; read-out: PERK Enzyme (500 μM ATP) IC50
Procedure, shortened: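 GST-PERK (0.75 nM final) pre-incubated 30–60 min with compound (≤1% DMSO) in HEPES pH 7.5/CHAPS/MgCl2/DTT, then 500 μM ATP and 40 nM biotin-eIF2α added for 60 min. EDTA quench; HTRF detection of phospho-eIF2α (Eu anti-rabbit/streptavidin-APC) read after 2 h; IC50 from concentration series.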

Row | SMILES | IC50 [nM]
1 | CCN1C(=O)N(c2ccc(-c3cn(C)c4ncnc(N)c34)c(F)c2)CC1c1cc(F)cc(C(F)(F)F)c1 (single isomer, unassigned) [Example 88, 1-(4-(4-amino-7-methyl-7H-pyrrolo[2,3-d]pyrimidin-5-yl)-3-fluorophenyl)-3-ethyl-4-(3-fluoro-5-(trifluoromethyl)phenyl)imidazolidin-2-one] | 192
2 | CN1C(=O)N(c2ccc(-c3cn(C)c4ncnc(N)c34)c(F)c2)CC1c1ccc(F)c(F)c1 (single isomer, unassigned) [Example 115, 1-(4-(4-amino-7-methyl-7H-pyrrolo[2,3-d]pyrimidin-5-yl)-3-fluorophenyl)-4-(3,4-difluorophenyl)-3-methylimidazolidin-2-one] | 2.4
3 | CC(C)n1cc(-c2ccc(N3CC(c4ccc(F)cc4F)N(C)C3=O)cc2F)c2c(N)ncnc21 (stereo not drawn) [Example 92, 1-(4-(4-amino-7-isopropyl-7H-pyrrolo[2,3-d]pyrimidin-5-yl)-3-fluorophenyl)-4-(2,4-difluorophenyl)-3-methylimidazolidin-2-one] | 351

Same assay, conditions: PERK Enzyme (500 μM ATP) IC50; at least one experimental run; read-out: PERK Activity

Row | SMILES | IC50 [nM]
4 | CN1C(=O)N(c2ccc(-c3cn(C4CC4)c4ncnc(N)c34)c(F)c2)CC1c1cc(F)ccc1F (single isomer, unassigned) [Example 145, 1-(4-(4-amino-7-cyclopropyl-7H-pyrrolo[2,3-d]pyrimidin-5-yl)-3-fluorophenyl)-4-(2,5-difluorophenyl)-3-methylimidazolidin-2-one] | < 100
5 | CN1C(=O)N(c2ccc(-c3cn(C4CC4)c4ncnc(N)c34)c(F)c2)CC1c1cccc(F)c1 (single isomer, unassigned) [Example 125, 1-(4-(4-amino-7-cyclopropyl-7H-pyrrolo[2,3-d]pyrimidin-5-yl)-3-fluorophenyl)-4-(3-fluorophenyl)-3-methylimidazolidin-2-one] | < 100
6 | Cc1cc(N2CC(c3cc(F)cc(F)c3)N(C)C2=O)ccc1-c1cn(C2CC2)c2ncnc(N)c12 (stereo not drawn) [Example 119, 1-(4-(4-amino-7-cyclopropyl-7H-pyrrolo[2,3-d]pyrimidin-5-yl)-3-methylphenyl)-4-(3,5-difluorophenyl)-3-methylimidazolidin-2-one] | < 100
7 | CN1C(=O)N(c2ccc(-c3cn(C4CC4)c4ncnc(N)c34)c(F)c2)CC1c1cc(F)ccc1F (stereo not drawn) [Example 144, 1-(4-(4-amino-7-cyclopropyl-7H-pyrrolo[2,3-d]pyrimidin-5-yl)-3-fluorophenyl)-4-(2,5-difluorophenyl)-3-methylimidazolidin-2-one] | < 100
8 | Cc1nc(N)c2c(-c3ccc(N4CC(c5ccc(F)cc5F)N(C)C4=O)cc3F)cn(C3CC3)c2n1 (single isomer, unassigned) [Example 9, 1-(4-(4-amino-7-cyclopropyl-2-methyl-7H-pyrrolo[2,3-d]pyrimidin-5-yl)-3-fluorophenyl)-4-(2,4-difluorophenyl)-3-methylimidazolidin-2-one] | > 1000
9 | CCN1C(=O)N(c2ccc(-c3cn(C)c4ncnc(N)c34)c(F)c2)CC1c1cccc(Cl)c1F (stereo not drawn) [Example 22, 1-(4-(4-amino-7-methyl-7H-pyrrolo[2,3-d]pyrimidin-5-yl)-3-fluorophenyl)-4-(3-chloro-2-fluorophenyl)-3-ethylimidazolidin-2-one] | 100 to 1000
10 | CN1C(=O)N(c2ccc(-c3cn(C4CC4)c4ncnc(N)c34)c(F)c2)CC1c1ccc(F)c(F)c1 (single isomer, unassigned) [Example 117, 1-(4-(4-amino-7-cyclopropyl-7H-pyrrolo[2,3-d]pyrimidin-5-yl)-3-fluorophenyl)-4-(3,4-difluorophenyl)-3-methylimidazolidin-2-one] | 100 to 1000
11 | CN1C(=O)N(c2ccc(-c3cn(C4CC4)c4ncnc(N)c34)c(F)c2)CC1c1cc(F)cc(F)c1F (single isomer, unassigned) [Example 143, 1-(4-(4-amino-7-cyclopropyl-7H-pyrrolo[2,3-d]pyrimidin-5-yl)-3-fluorophenyl)-3-methyl-4-(2,3,5-trifluorophenyl)imidazolidin-2-one] | 100 to 1000
12 | CCN1C(=O)N(c2ccc(-c3cn(C)c4ncnc(N)c34)c(F)c2)CC1c1cc(F)cc(C(F)(F)F)c1 (single isomer, unassigned) [Example 88, 1-(4-(4-amino-7-methyl-7H-pyrrolo[2,3-d]pyrimidin-5-yl)-3-fluorophenyl)-3-ethyl-4-(3-fluoro-5-(trifluoromethyl)phenyl)imidazolidin-2-one] | 100 to 1000
13 | CN1C(=O)N(c2ccc(-c3cn(C)c4ncnc(N)c34)c(F)c2)CC1c1c(F)cccc1F (stereo not drawn) [Example 81, 1-(4-(4-amino-7-methyl-7H-pyrrolo[2,3-d]pyrimidin-5-yl)-3-fluorophenyl)-4-(2,6-difluorophenyl)-3-methylimidazolidin-2-one] | < 100
14 | CN1C(=O)N(c2ccc(-c3cn(C4CC4)c4ncnc(N)c34)c(F)c2)CC1c1ccccc1 (stereo not drawn) [Example 149, 1-(4-(4-amino-7-cyclopropyl-7H-pyrrolo[2,3-d]pyrimidin-5-yl)-3-fluorophenyl)-3-methyl-4-phenylimidazolidin-2-one] | < 100
15 | Cc1nc(N)c2c(-c3ccc(N4CC(c5c(F)cc(F)cc5F)N(C)C4=O)cc3F)cn(C)c2n1 (single isomer, unassigned) [Example 71, 1-(4-(4-amino-2,7-dimethyl-7H-pyrrolo[2,3-d]pyrimidin-5-yl)-3-fluorophenyl)-3-methyl-4-(2,4,6-trifluorophenyl)imidazolidin-2-one] | 100 to 1000
16 | CN1C(=O)N(c2ccc(-c3cn(C)c4ncnc(N)c34)c(F)c2)CC1c1cccc(F)c1F (stereo not drawn) [Example 74, 1-(4-(4-amino-7-methyl-7H-pyrrolo[2,3-d]pyrimidin-5-yl)-3-fluorophenyl)-4-(2,3-difluorophenyl)-3-methylimidazolidin-2-one] | 100 to 1000
17 | CN1C(=O)N(c2ccc(-c3cn(C)c4ncnc(N)c34)c(F)c2)CC1c1ccc(F)c(F)c1 (single isomer, unassigned) [Example 115, 1-(4-(4-amino-7-methyl-7H-pyrrolo[2,3-d]pyrimidin-5-yl)-3-fluorophenyl)-4-(3,4-difluorophenyl)-3-methylimidazolidin-2-one] | < 100
18 | CN1C(=O)N(c2ccc(-c3cn(C)c4ncnc(N)c34)c(F)c2)CC1c1cccc(OC(F)F)c1 (stereo not drawn) [Example 73, 1-(4-(4-amino-7-methyl-7H-pyrrolo[2,3-d]pyrimidin-5-yl)-3-fluorophenyl)-4-(3-(difluoromethoxy)phenyl)-3-methylimidazolidin-2-one] | 100 to 1000
19 | CC(C)n1cc(-c2ccc(N3CC(c4cc(F)ccc4F)N(C)C3=O)cc2F)c2c(N)ncnc21 (stereo not drawn) [Example 43, 1-(4-(4-amino-7-isopropyl-7H-pyrrolo[2,3-d]pyrimidin-5-yl)-3-fluorophenyl)-4-(2,5-difluorophenyl)-3-methylimidazolidin-2-one] | < 100
20 | Cc1c(-c2ccc(N3CC(c4ccc(F)cc4F)N(C)C3=O)cc2F)c2c(N)ncnc2n1C (stereo not drawn) [Example 94, 1-(4-(4-amino-6,7-dimethyl-7H-pyrrolo[2,3-d]pyrimidin-5-yl)-3-fluorophenyl)-4-(2,4-difluorophenyl)-3-methylimidazolidin-2-one] | 100 to 1000
21 | CCN1C(=O)N(c2ccc(-c3cn(C4CC4)c4ncnc(N)c34)c(F)c2)CC1c1cc(F)ccc1F (stereo not drawn) [Example 120, 1-(4-(4-amino-7-cyclopropyl-7H-pyrrolo[2,3-d]pyrimidin-5-yl)-3-fluorophenyl)-4-(2,5-difluorophenyl)-3-ethylimidazolidin-2-one] | < 100
22 | Cc1cccc(C2CN(c3ccc(-c4cn(C)c5ncnc(N)c45)c(F)c3)C(=O)N2C)c1 (stereo not drawn) [Example 39, 1-(4-(4-amino-7-methyl-7H-pyrrolo[2,3-d]pyrimidin-5-yl)-3-fluorophenyl)-3-methyl-4-(m-tolyl)imidazolidin-2-one] | 100 to 1000
23 | Cn1cc(-c2ccc(N3CC(C4CCCC4)CC3=O)cc2F)c2c(N)ncnc21 (stereo not drawn) [Example 28, 1-(4-(4-amino-7-methyl-7H-pyrrolo[2,3-d]pyrimidin-5-yl)-3-fluorophenyl)-4-cyclopentylpyrrolidin-2-one] | 100 to 1000
24 | CC(C)n1cc(-c2ccc(N3CC(c4ccc(F)cc4F)N(C)C3=O)cc2F)c2c(N)ncnc21 (stereo not drawn) [Example 92, 1-(4-(4-amino-7-isopropyl-7H-pyrrolo[2,3-d]pyrimidin-5-yl)-3-fluorophenyl)-4-(2,4-difluorophenyl)-3-methylimidazolidin-2-one] | 100 to 1000
